# Active and inactive are the calls of the source.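 Rule for the calls: active = summed score of at least 50 from binding left at 10 µM, EC50 band and curve drop size; inactive = the rest.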
# Biological target: Estrogen receptor beta (Homo sapiens) (UniProt Q92731)
# Test: competitive ligand binding to estrogen receptor beta – cell-based, Cos7 ERbeta-GFP, E2-Alexa633, flow cytometry, dose response (AID 1221)
# Conditions: for percent ligand binding remaining: at 10 µM (top of the series)
# Sequence of Estrogen receptor beta (Homo sapiens) (Q92731 whole entry, looked up): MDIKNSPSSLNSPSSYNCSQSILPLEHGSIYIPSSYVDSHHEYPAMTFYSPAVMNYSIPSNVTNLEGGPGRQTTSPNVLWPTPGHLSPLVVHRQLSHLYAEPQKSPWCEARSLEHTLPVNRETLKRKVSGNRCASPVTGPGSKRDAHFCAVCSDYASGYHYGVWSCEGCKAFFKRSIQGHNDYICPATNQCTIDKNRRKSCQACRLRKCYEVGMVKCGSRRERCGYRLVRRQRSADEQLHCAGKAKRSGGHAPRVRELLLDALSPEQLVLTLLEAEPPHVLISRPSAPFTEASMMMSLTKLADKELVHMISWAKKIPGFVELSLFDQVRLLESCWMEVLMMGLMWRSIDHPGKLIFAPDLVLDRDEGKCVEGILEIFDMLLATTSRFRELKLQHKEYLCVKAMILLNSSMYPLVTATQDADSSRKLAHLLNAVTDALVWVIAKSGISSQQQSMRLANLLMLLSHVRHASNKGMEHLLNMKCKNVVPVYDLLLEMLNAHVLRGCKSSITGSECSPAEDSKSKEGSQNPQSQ
Structure (SMILES),percent ligand binding remaining,EC50
Cc1cc(C(=O)Nc2sc3c(c2C#N)CCC3)no1,inactive,–
CCn1c(=NC(=O)c2ccc(N3C(=O)CCC3=O)cc2)sc2c(OC)ccc(OC)c21,inactive,–
CC(=O)Nc1ccc(OC(=O)CC2SC(=O)NC2=O)cc1 (stereo not drawn),inactive,–
C[C@]12CC[C@@H]3c4ccc(O)cc4[C@@H](O)C[C@H]3[C@@H]1CC[C@@H]2O,inactive,–
CC(=O)c1ccc2c(c1)C1C=CCC1C(c1ccc(S(=O)(=O)N3CCOCC3)cc1)N2 (stereo not drawn),inactive,–
CCc1nc2sc3ccccc3c(=O)c2c(=O)n1Cc1ccco1,inactive,–
O=S(=O)(NCCc1csc(-c2cccnc2)n1)c1ccc(Cl)s1,inactive,–
O=C1NC(c2ccc(Br)cc2)Nc2sc3c(c21)CCC3 (stereo not drawn),inactive,–
CCNC(=O)c1ccc2c(c1)C1C3CCC(C3)C1C(c1ccccc1)N2 (stereo not drawn),inactive,–
Oc1ccc(-c2nc3ccc4ccccc4c3c3c2CCC3)cc1O,–,> 10 µM (inactive)
Cc1ccc(-n2c(=O)c(C#N)cc3c(=O)n4cccc(C)c4nc32)cc1,inactive,–
COc1nc(-c2ccc(Cl)cc2)ccc1-c1noc(-c2ccco2)n1,inactive,–
Cc1nn(-c2ccccc2)c(/N=C/c2ccc(O)cc2)c1-c1ccccc1,inactive,–
Brc1cc2c(cc1C1Nc3ccccc3C3C=CCC31)OCO2 (stereo not drawn),inactive,–
Cc1cc(C)cc(OCC(=O)Nc2ccc(N3CCCC3)cc2)c1,inactive,–
O=C(O)c1ccc2c(c1)C1C(Cl)C(Sc3ccccc3[N+](=O)[O-])CC1C(c1cccc([N+](=O)[O-])c1)N2 (stereo not drawn),inactive,–
COc1ccc(/C=N/NC(=O)c2nc(-c3ccccc3)cc(-c3ccccc3)n2)cc1O,inactive,–

Structure (SMILES),percent ligand binding remaining,EC50
O=C1/C(=C\c2ccco2)SC(=S)N1c1ccc(O)cc1,inactive,–
Cc1cc(C)c2c(c1)NC(c1cc3c(cc1Br)OCO3)C1CC=CC21 (stereo not drawn),inactive,–
COc1cccc(NS(=O)(=O)c2ccc3c(c2)C2C=CCC2C(c2ccc(C(=O)O)cc2)N3)c1 (stereo not drawn),inactive,–
Oc1ccc(-c2nc(-c3ccc(O)c(O)c3)cs2)cc1,inactive,–
COc1cccc(C2Nc3c(F)cc(Br)cc3C3C=CCC32)c1OC (stereo not drawn),inactive,–
O=C(Cc1cccs1)Nc1ccc(S(=O)(=O)Nc2ncccn2)cc1,inactive,–
Cn1ccnc1SCC(=O)Nc1ccc2nc(SCC(=O)NC3CC3)sc2c1,inactive,–
Cc1cc([N+](=O)[O-])c2c(c1C)C1C=CCC1C(c1ccccn1)N2 (stereo not drawn),inactive,–
CCC(=O)Oc1ccc(/C(CC)=C(\CC)c2ccc(OC(=O)CC)cc2)cc1,32.1%,–
COc1ccc(NC(=O)C(c2ccccc2)N(C)C(=O)c2ccc(=O)[nH]c2)cc1 (stereo not drawn),inactive,–
C/C=C(/C(=C/C)c1ccc(O)cc1)c1ccc(O)cc1,45.1%,–
N=C1C(c2nc3ccccc3[nH]2)=C(O)CN1c1ccc(CC(=O)O)cc1,inactive,–
Cc1nnc(SCC(=O)NC(=O)NCc2ccco2)n1Cc1ccccc1,inactive,–
CCCCCCNC(=O)c1cc(-c2ccco2)nc2ccccc12,inactive,–
C[C@H]1CCC[C@@H](O)CCC/C=C/c2cc(O)cc(O)c2C(=O)O1,inactive,–
COc1ccc(C(=O)N/N=C(\C)c2ccc3c(c2)C2C=CCC2C(c2ccccc2)N3)cc1 (stereo not drawn),32.7%,–

# Source: PubChem BioAssay AID1221 (NMMLSC, 2008)
